Laboratory results: patent US11780893B2, “Kv1.3 blockers” (Zealand Pharma A/S, priority 2019, dated 2023)
Read-outs that look alike come from different tables or passages of the source. Bridge positions count the residues as written; N and C are the ends. Square brackets hold non-standard residues; d marks the D form. Peptide text beside a SMILES is read from it. Nle = CCCC[C@H](N)C(=O)O

Columns and labels:
[1] = biological target: T1, Kv1.3 (Homo sapiens, UniProt P22001); experiment: cell-based
T1 construct: expressed in transfected cells; host or cells: Chinese Hamster Ovary (CHO)

[2] = system: Human peripheral blood mononuclear cells (PBMCs); experiment: IL-2 release from anti-CD3 stimulated human PBMCs (Example 4a); assay type: cell-based
Protocol: Human peripheral blood mononuclear cells (PBMCs) were used to assess the effects of Kv1.3 blockers on T-cell activation as determined by IL-2 (cytokine) release after stimulation with anti-CD3.
Human PBMCs were obtained from Precision for Medicine (Frederick, Md.). Cells from 5 donors were used. Plate-bound anti-CD3 was used to stimulate bulk T cells in the PBMC preparations. Briefly, 96-well plates were coated with anti-CD3 antibody for 2 hrs at 37° C., using 50 μL of a 0.5 μg/mL anti-CD3 solution diluted in 1×PBS. Thereafter the plates were washed twice.
Finally, 1×10^5 PBMCs were added to each well in a volume of 100 μL, giving a final volume of 200 μL per well. The plates were incubated for 20-24 hours in a 37° C./5% CO2 incubator. After centrifugation of the plates, 25 μl supernatant was transferred to IL-2 detection plates (MSD Human IL-2 Tissue Culture Kit, cat #K151AHB-2) and IL-2 was measures as described by the manufacturer (Meso Scale Discovery, Rockville, Md., USA).
Results are shown in Table 4a as geometric mean of IC50 values obtained from anti-CD3 stimulated human PBMC assays. All values derive from at least 4 replicates.

[3] = biological target: T2, Kv1.1 (Homo sapiens, UniProt Q09470); experiment: cell-based; conditions: for Selectivity Kv1.1/Kv1.3: ratio IC50[Kv1.1]/IC50[Kv1.3]
T2 construct: expressed in transfected cells; host or cells: Chinese Hamster Ovary (CHO)

[4] = biological target: T3, Kv1.6 (Homo sapiens, UniProt P17658); experiment: cell-based; conditions: for Selectivity Kv1.6/Kv1.3: ratio IC50[Kv1.6]/IC50[Kv1.3]
T3 construct: expressed in transfected cells; host or cells: Chinese Hamster Ovary (CHO)

[5] = biological target: T4, Kv1.2 (Homo sapiens, UniProt P16389); experiment: cell-based
T4 construct: expressed in transfected cells; host or cells: Chinese Hamster Ovary (CHO)

[6] = biological target: T5, human Kv1.3 voltage-gated K+ channel (Homo sapiens, UniProt P22001); experiment: cell-based
T5 construct: host or cells: CHO-DUKX

[7] = in vivo; conditions: male, rat, sc, 70 nmol/kg
[8] = biological target: Rat whole blood (Rattus norvegicus, UniProt P15384)
[9] = system: delayed-type hypersensitivity (DTH) ear swelling response; assay type: in vivo, rat
[10] = CHO cells, whole-cell patch clamp, read-out: Potency IC50 (nM) Kv1.3
[11] = CHO cells, whole-cell patch clamp, read-out: Potency IC50 (nM) Kv1.1
[12] = CHO cells, whole-cell patch clamp, read-out: Potency IC50 (nM) Kv1.6
[13] = CHO cells, whole-cell patch clamp, read-out: Potency IC50 (nM) Kv1.2
[14] = inhibition of thallium flux, CHO-DUKX cells with human Kv1.3, read-out: IC50

T3 sequence (P17658 whole entry): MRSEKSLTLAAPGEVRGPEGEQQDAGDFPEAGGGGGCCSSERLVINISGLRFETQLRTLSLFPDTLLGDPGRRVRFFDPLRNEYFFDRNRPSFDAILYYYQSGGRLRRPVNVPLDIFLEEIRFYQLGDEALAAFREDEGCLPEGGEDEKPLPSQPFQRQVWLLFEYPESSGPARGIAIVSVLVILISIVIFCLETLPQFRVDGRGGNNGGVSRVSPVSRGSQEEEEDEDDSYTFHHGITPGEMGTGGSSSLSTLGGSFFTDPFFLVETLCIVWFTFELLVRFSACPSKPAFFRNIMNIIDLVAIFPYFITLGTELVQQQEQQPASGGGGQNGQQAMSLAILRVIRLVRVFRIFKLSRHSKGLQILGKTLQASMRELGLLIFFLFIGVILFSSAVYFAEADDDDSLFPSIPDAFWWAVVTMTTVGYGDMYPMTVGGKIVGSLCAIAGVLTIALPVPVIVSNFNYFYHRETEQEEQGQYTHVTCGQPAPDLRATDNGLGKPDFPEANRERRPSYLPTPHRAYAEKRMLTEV
T5 sequence (P22001 whole entry): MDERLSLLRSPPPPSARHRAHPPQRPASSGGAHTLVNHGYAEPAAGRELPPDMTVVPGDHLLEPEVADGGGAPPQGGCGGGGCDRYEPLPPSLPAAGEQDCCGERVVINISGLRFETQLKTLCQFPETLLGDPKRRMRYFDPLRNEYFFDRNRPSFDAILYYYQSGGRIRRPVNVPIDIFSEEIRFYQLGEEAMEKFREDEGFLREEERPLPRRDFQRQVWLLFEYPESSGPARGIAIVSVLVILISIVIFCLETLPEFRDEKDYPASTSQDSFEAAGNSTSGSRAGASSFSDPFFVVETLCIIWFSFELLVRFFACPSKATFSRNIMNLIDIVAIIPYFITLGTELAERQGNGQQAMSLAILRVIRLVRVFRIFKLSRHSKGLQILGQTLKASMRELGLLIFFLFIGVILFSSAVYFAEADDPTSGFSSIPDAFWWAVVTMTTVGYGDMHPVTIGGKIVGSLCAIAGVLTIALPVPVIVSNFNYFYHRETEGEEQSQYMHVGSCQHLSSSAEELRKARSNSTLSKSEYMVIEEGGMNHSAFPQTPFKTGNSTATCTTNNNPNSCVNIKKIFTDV
T1 sequence (P22001 whole entry): as above
T2 sequence (Q09470 whole entry): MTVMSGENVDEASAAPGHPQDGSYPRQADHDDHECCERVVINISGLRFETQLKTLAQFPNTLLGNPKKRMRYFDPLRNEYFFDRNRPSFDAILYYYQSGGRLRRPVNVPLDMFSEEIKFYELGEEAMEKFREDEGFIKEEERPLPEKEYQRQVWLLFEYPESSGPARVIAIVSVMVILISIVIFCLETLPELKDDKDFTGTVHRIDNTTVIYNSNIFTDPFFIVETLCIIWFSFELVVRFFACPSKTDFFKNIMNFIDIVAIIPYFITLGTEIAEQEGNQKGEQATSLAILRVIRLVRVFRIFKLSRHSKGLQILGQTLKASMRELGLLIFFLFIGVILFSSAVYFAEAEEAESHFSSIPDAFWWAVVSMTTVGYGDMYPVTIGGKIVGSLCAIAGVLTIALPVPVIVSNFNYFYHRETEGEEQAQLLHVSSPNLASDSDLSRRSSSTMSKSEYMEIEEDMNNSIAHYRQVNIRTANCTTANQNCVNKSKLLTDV
T4 sequence (P16389 whole entry): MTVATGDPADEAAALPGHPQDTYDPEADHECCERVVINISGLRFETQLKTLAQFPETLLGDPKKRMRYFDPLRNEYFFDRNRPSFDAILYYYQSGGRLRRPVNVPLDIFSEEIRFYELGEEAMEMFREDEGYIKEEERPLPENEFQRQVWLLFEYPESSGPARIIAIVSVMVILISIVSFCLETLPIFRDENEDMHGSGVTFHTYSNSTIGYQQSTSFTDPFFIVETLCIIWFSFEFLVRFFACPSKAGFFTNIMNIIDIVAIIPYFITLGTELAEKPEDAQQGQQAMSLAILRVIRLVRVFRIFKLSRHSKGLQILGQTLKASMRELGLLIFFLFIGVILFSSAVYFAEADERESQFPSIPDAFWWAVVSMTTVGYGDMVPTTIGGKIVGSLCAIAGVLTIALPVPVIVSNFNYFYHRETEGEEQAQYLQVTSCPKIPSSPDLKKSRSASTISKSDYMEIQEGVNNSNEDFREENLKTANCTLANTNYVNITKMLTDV
Sequence of Rat whole blood (P15384 whole entry): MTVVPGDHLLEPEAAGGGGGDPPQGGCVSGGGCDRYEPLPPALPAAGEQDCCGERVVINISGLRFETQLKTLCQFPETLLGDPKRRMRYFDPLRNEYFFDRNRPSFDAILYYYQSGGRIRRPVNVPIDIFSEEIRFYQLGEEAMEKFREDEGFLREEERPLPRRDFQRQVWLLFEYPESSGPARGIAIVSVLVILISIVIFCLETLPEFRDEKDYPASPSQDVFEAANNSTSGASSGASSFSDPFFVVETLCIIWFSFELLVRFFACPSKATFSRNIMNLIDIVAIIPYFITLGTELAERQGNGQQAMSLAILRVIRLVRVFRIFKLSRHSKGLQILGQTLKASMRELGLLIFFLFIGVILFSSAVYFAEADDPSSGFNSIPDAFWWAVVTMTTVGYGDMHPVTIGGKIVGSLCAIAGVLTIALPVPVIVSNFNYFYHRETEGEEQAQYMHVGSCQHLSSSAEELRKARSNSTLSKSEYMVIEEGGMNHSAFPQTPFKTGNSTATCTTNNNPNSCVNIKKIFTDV

In the case of `CCCC[C@@H]1NC(=O)[C@@H]2CSSC[C@H](NC(=O)[C@H](CCCNC(=N)N)NC(=O)[C@H](CCSC)NC(=O)[C@H](CC(=O)O)NC(=O)[C@H](CCSC)NC(=O)[C@@H](N)CC(N)=O)C(=O)N[C@@H](CO)C(=O)N[C@@H](C)C(=O)N[C@@H](CO)C(=O)N[C@@H](C(C)C)C(=O)N[C@@H](CCC(=O)O)C(=O)N[C@H]3CSSC[C@H](NC(=O)[C@H](CCCCN)NC(=O)[C@H](CCCCN)NC(=O)[C@H](CC(N)=O)NC1=O)C(=O)N[C@@H](CCCCN)C(=O)N[C@H](C(=O)N[C@@H](Cc1ccc(O)cc1)C(=O)N1CCC[C@H]1C(=O)N[C@@H](CCCNC(=N)N)C(N)=O)CSSC[C@H](NC(=O)[C@H](CCCCN)NC(=O)[C@H](CCC(N)=O)NC(=O)[C@H](CCCCN)NC3=O)C(=O)N[C@@H](CC(C)C)C(=O)N[C@@H](CCCCN)C(=O)N[C@@H](C)C(=O)N[C@@H]([C@@H](C)CC)C(=O)NCC(=O)N[C@@H](CO)C(=O)N[C@@H]([C@@H](C)CC)C(=O)N[C@@H](Cc1ccccc1)C(=O)NCC(=O)N[C@@H](CCCCN)C(=O)N2` [Compound 16] (H-NMDMRCSASVECKQKCLKAIGSIFGKC[Nle]NKKCKCYPR-NH2; disulfide 6-27, 12-32, 16-34), the IC50 [1, 10] is reported as 0.24 nM, the IC50 ([2]; geometric mean, at least 4 replicates, read-out: anti-CD3 PBMC/IL-2 IC50) is reported as 0.05 nM and the IC50 [3, 11] is reported as greater than 3000 nM. The “Selectivity Kv1.1/Kv1.3” value [3] was greater than 12600, the IC50 [4, 12] was 2460 nM and the IC50 [5, 13] was 133 nM. The IC50 [6, 14] was 0.14 nM.

`CC[C@H](C)[C@@H]1NC(=O)[C@H](C)NC(=O)[C@H](C)NC(=O)[C@H](CC(C)C)NC(=O)[C@@H]2CSSC[C@@H](C(=O)N[C@@H](Cc3ccc(O)cc3)C(=O)N3CCC[C@H]3C(=O)N[C@@H](CCCNC(=N)N)C(N)=O)NC(=O)[C@H](CCCCN)NC(=O)[C@@H]3CSSC[C@H](NC(=O)[C@H](CCC(=O)O)NC(=O)[C@H](C(C)C)NC(=O)[C@H](CO)NC(=O)[C@H](C)NC(=O)[C@H](CO)NC(=O)[C@@H](NC(=O)[C@H](CCCNC(=N)N)NC(=O)[C@H](CCSC)NC(=O)[C@H](CC(=O)O)NC(=O)[C@H](CCSC)NC(=O)[C@@H](N)CC(N)=O)CSSC[C@H](NC(=O)[C@H](CCCCN)NC(=O)CNC(=O)[C@H](Cc4ccccc4)NC(=O)[C@H]([C@@H](C)CC)NC(=O)[C@H](CO)NC(=O)CNC1=O)C(=O)N[C@@H](CCSC)C(=O)N[C@@H](CC(N)=O)C(=O)N[C@@H](CCCCN)C(=O)N[C@@H](CCCCN)C(=O)N3)C(=O)N[C@@H](CCCCN)C(=O)N[C@@H](CCC(N)=O)C(=O)N[C@@H](CCCCN)C(=O)N2` [Compound 52] (H-NMDMRCSASVECKQKCLAAIGSIFGKCMNKKCKCYPR-NH2; disulfide 6-27, 12-32, 16-34) showed an AUC(0-inf) [7] of 0.0485 µM·h, a Cmax [7] of 31.2 nM and a half-life [7] of 53.4 min. It also gave an IC50 [8] of no more than 1 nM, an IC50 [1, 10] of 0.11 nM and an IC50 [3, 11] greater than 3000 nM. The “Selectivity Kv1.1/Kv1.3” value [3] was greater than 27500, the IC50 [4, 12] was greater than 3000 nM and the “Selectivity Kv1.6/Kv1.3” value [4] was greater than 27500. The “% inhibition of ear thickness (AUC of Δ ear thickness 0-48 hours)” value ([9]; Exp #4, Kv1.3 blocker 100 nmol/kg SC 24 hrs prior to KLH challenge, CsA 10 mg/kg per os, +/- SD) was 25.1%, the IC50 [5, 13] was 88 nM and the IC50 [6, 14] was 0.11 nM.

`CCCC[C@H](NC(=O)[C@@H]1CCCN1)C(=O)N[C@@H](CCC(=O)O)C(=O)N[C@@H](CCCC)C(=O)N[C@@H](CCCNC(=N)N)C(=O)N[C@H]1CSSC[C@@H]2NC(=O)[C@H](CCCCN)NC(=O)CNC(=O)[C@H](Cc3ccccc3)NC(=O)[C@H]([C@@H](C)CC)NC(=O)[C@H](CO)NC(=O)CNC(=O)[C@H]([C@@H](C)CC)NC(=O)[C@H](C)NC(=O)[C@H](C)NC(=O)[C@H](CC(C)C)NC(=O)[C@@H]3CSSC[C@@H](C(=O)N[C@@H](Cc4ccc(O)cc4)C(=O)N4CCC[C@H]4C(=O)N[C@@H](CCCNC(=N)N)C(=O)O)NC(=O)[C@H](CCCCN)NC(=O)[C@H](CSSC[C@H](NC(=O)[C@H](CCC(=O)O)NC(=O)[C@H](C(C)C)NC(=O)[C@H](CO)NC(=O)[C@H](C)NC(=O)[C@H](CO)NC1=O)C(=O)N[C@@H](CCCCN)C(=O)N[C@@H](CCC(N)=O)C(=O)N[C@@H](CCCCN)C(=O)N3)NC(=O)[C@H](CCCCN)NC(=O)[C@H](CCCCN)NC(=O)[C@H](CC(N)=O)NC(=O)[C@H](CCCC)NC2=O` [Compound 97] (H-P[Nle]E[Nle]RCSASVECKQKCLAAIGSIFGKC[Nle]NKKCKCYPR-OH; disulfide 6-27, 12-32, 16-34) showed an AUC(0-inf) [7] of 0.112 µM·h, a Cmax [7] of 52.6 nM and a half-life [7] of 62.4 min. The IC50 [8] was no more than 1 nM, the IC50 [1, 10] was 0.33 nM and the IC50 [3, 11] was greater than 3000 nM. The “Selectivity Kv1.1/Kv1.3” value [3] was greater than 9100, the IC50 [4, 12] was greater than 3000 nM and the “Selectivity Kv1.6/Kv1.3” value [4] was greater than 9100. For the same compound, the “% inhibition of ear thickness (AUC of Δ ear thickness 0-48 hours)” value ([9]; Exp #6, Kv1.3 blocker 100 nmol/kg SC 24 hrs prior to KLH challenge, CsA 10 mg/kg per os) was 42.5%, the “% inhibition of ear thickness (AUC of Δ ear thickness 0-48 hours)” value ([9]; Exp #8, Kv1.3 blocker 100 nmol/kg SC 24 hrs prior to KLH challenge, CsA 10 mg/kg per os) was 37.7% and the IC50 [5, 13] was 1120 nM. The IC50 [6, 14] was 0.15 nM.

`CCCC[C@@H]1NC(=O)[C@@H]2CSSC[C@H](NC(=O)[C@H](CCCNC(=N)N)NC(=O)[C@H](CCCC)NC(=O)[C@H](CCC(=O)O)NC(=O)[C@@H](NC(=O)[C@@H]3CCCN3)[C@@H](C)CC)C(=O)N[C@@H](CO)C(=O)N[C@@H](C)C(=O)N[C@@H](CO)C(=O)N[C@@H](C(C)C)C(=O)N[C@@H](CCC(=O)O)C(=O)N[C@H]3CSSC[C@H](NC(=O)[C@H](CCCCN)NC(=O)[C@H](CCCCN)NC(=O)[C@H](CC(N)=O)NC1=O)C(=O)N[C@@H](CCCCN)C(=O)N[C@H](C(=O)N[C@@H](Cc1ccc(O)cc1)C(=O)N1CCC[C@H]1C(=O)N[C@@H](CCCNC(=N)N)C(=O)O)CSSC[C@H](NC(=O)[C@H](CCCCN)NC(=O)[C@H](CCC(N)=O)NC(=O)[C@H](CCCCN)NC3=O)C(=O)N[C@@H](CC(C)C)C(=O)N[C@@H](C)C(=O)N[C@@H](C)C(=O)N[C@@H]([C@@H](C)CC)C(=O)NCC(=O)N[C@@H](CO)C(=O)N[C@@H]([C@@H](C)CC)C(=O)N[C@@H](Cc1ccccc1)C(=O)NCC(=O)N[C@@H](CCCCN)C(=O)N2` [Compound 101] (H-PIE[Nle]RCSASVECKQKCLAAIGSIFGKC[Nle]NKKCKCYPR-OH; disulfide 6-27, 12-32, 16-34) showed an AUC(0-inf) [7] of 0.132 µM·h, a Cmax [7] of 58.6 nM and a half-life [7] of 54.6 min. It also gave an IC50 [8] of no more than 1 nM, an IC50 [1] of 0.35 nM and an IC50 [3] greater than 3000 nM. The IC50 [4] was greater than 3000 nM, the “% inhibition of ear thickness (AUC of Δ ear thickness 0-48 hours)” value ([9]; rat, in vivo) was 44.5% and the IC50 [5] was 1970 nM. The IC50 [6] was 0.18 nM.

With `CC[C@H](C)[C@H](N)C(=O)N[C@@H](CC(N)=O)C(=O)N[C@H](C(=O)N[C@@H](CCCCN)C(=O)N[C@H]1CSSC[C@@H]2NC(=O)[C@H](CCCCN)NC(=O)CNC(=O)[C@H](Cc3ccccc3)NC(=O)[C@H](CCCNC(=N)N)NC(=O)[C@H](CCSC)NC(=O)CNC(=O)[C@H](C)NC(=O)[C@H](CC(=O)O)NC(=O)[C@H](CCCCN)NC(=O)[C@@H]3CSSC[C@@H](C(=O)N[C@@H](Cc4ccc(O)cc4)C(=O)N[C@@H](CO)C(=O)O)NC(=O)[C@H](CCCNC(=N)N)NC(=O)[C@H](CSSC[C@H](NC(=O)[C@H](CCC(N)=O)NC(=O)[C@H](CCC(N)=O)NC(=O)[C@@H]4CCCN4C(=O)[C@H](CC(C)C)NC(=O)[C@H](CO)NC1=O)C(=O)N[C@@H]([C@@H](C)CC)C(=O)N[C@@H](CCCCN)C(=O)N1CCC[C@H]1C(=O)N3)NC(=O)[C@H](CCCCN)NC(=O)[C@H](CCCCN)NC(=O)[C@H](CC(N)=O)NC(=O)[C@H](CCSC)NC2=O)C(C)C` [Moka1, reference compound] the “IC50 of Moka1 relative to IC50 of test compounds and ShK186 (IL-2 secretion)” value ([2]; test compound IC50 lower than that of Moka1) was 10-100 fold.
